Data as given in the supplement of paper PMC10307832.

Columns and labels:
Experiment in all cases: relative viability (nuclei count vs DMSO), 5 days (fraction); higher = more cells survive
ABC-1 = test system: ABC-1
Outline: (§1)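 Cells from lung cancer lines were seeded into 1536-well plates and, one day later, dosed by pin tool. Treatments were either a single drug or a fixed dose of an anchor drug with five library-drug doses (not always all listed) in √10 steps. After 5 days, nuclei were stained in a one-step fixation (final 0.05% Triton X-100, 1% formaldehyde, 1 ug/ml Hoechst) and counted on 4× images, and relative viability is the treated-to-vehicle nuclei ratio, as the median of duplicate plates.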

CAL-12T = test system: CAL-12T
Outline: as §1

ChaGo-K-1 = test system: ChaGo-K-1
Outline: as §1

HCC-366 = test system: HCC-366
Outline: as §1

HCC-78 = test system: HCC-78
Outline: as §1

LC-2-ad = test system: LC-2-ad
Outline: as §1

LOU-NH91 = test system: LOU-NH91
Outline: as §1

LU99A = test system: LU99A
Outline: as §1

NCI-H1651 = test system: NCI-H1651
Outline: as §1

NCI-H1734 = test system: NCI-H1734
Outline: as §1

NCI-H1755 = test system: NCI-H1755
Outline: as §1

NCI-H1944 = test system: NCI-H1944
Outline: as §1

NCI-H2087 = test system: NCI-H2087
Outline: as §1

NCI-H2170 = test system: NCI-H2170
Outline: as §1

NCI-H2228 = test system: NCI-H2228
Outline: as §1

NCI-H2405 = test system: NCI-H2405
Outline: as §1

NCI-H3122 = test system: NCI-H3122
Outline: as §1

NCI-H460 = test system: NCI-H460
Outline: as §1

PC-3 [JPC-3] = test system: PC-3 [JPC-3]
Outline: as §1

RERF-LC-KJ = test system: RERF-LC-KJ
Outline: as §1

UMC-11 = test system: UMC-11
Outline: as §1

Q: `O=C(O)c1ccc(-c2c[nH]c3ncc(-c4ccccc4)cc23)cc1C1CCCC1` + C[C@@H](Oc1cc(-c2cnn(C3CCNCC3)c2)cnc1N)c1c(Cl)ccc(F)c1Cl [Crizotinib] (partner 1 µM) was tested. Which relative viability (ABC-1; first compound 0.04 µM) did it give?
A: 1.4

Q: What about the relative viability (ABC-1; first compound 0.1265 µM) of the same compound?
A: 1.06

Q: What about the relative viability (ABC-1; first compound 0.4 µM) of the same compound?
A: 1.18

Q: What about the relative viability (ABC-1; first compound 1.265 µM) of the same compound?
A: 0.98

Q: What about the relative viability (CAL-12T; first compound 0.04 µM) of the same compound?
A: 0.633

Q: What about the relative viability (CAL-12T; first compound 0.1265 µM) of the same compound?
A: 0.755

Q: What about the relative viability (CAL-12T; first compound 0.4 µM) of the same compound?
A: 0.701

Q: What about the relative viability (CAL-12T; first compound 1.265 µM) of the same compound?
A: 0.528

Q: What about the relative viability (ChaGo-K-1; first compound 0.04 µM) of the same compound?
A: 1.11

Q: And the relative viability (ChaGo-K-1; first compound 0.1265 µM)?
A: 1.1

Q: What about the relative viability (ChaGo-K-1; first compound 0.4 µM) of the same compound?
A: 1.04

Q: And the relative viability (ChaGo-K-1; first compound 1.265 µM)?
A: 0.846

Q: What about the relative viability (HCC-366; first compound 0.04 µM) of the same compound?
A: 0.502

Q: And the relative viability (HCC-366; first compound 0.1265 µM)?
A: 0.686

Q: And the relative viability (HCC-366; first compound 0.4 µM)?
A: 0.619

Q: What about the relative viability (HCC-366; first compound 1.265 µM) of the same compound?
A: 0.696

Q: What about the relative viability (HCC-78; first compound 0.04 µM) of the same compound?
A: 0.338

Q: And the relative viability (HCC-78; first compound 0.1265 µM)?
A: 0.381

Q: What about the relative viability (HCC-78; first compound 0.4 µM) of the same compound?
A: 0.328

Q: What about the relative viability (HCC-78; first compound 1.265 µM) of the same compound?
A: 0.293

Q: And the relative viability (LC-2-ad; first compound 0.04 µM)?
A: 0.496

Q: And the relative viability (LC-2-ad; first compound 0.1265 µM)?
A: 0.452

Q: And the relative viability (LC-2-ad; first compound 0.4 µM)?
A: 0.412

Q: And the relative viability (LC-2-ad; first compound 1.265 µM)?
A: 0.364

Q: What about the relative viability (LOU-NH91; first compound 0.04 µM) of the same compound?
A: 0.725

Q: And the relative viability (LOU-NH91; first compound 0.1265 µM)?
A: 0.771

Q: And the relative viability (LOU-NH91; first compound 0.4 µM)?
A: 0.702

Q: What about the relative viability (LOU-NH91; first compound 1.265 µM) of the same compound?
A: 0.782

Q: And the relative viability (LU99A; first compound 0.04 µM)?
A: 0.539

Q: What about the relative viability (LU99A; first compound 0.1265 µM) of the same compound?
A: 0.678

Q: What about the relative viability (LU99A; first compound 0.4 µM) of the same compound?
A: 0.503

Q: What about the relative viability (LU99A; first compound 1.265 µM) of the same compound?
A: 0.486

Q: What about the relative viability (NCI-H1651; first compound 0.04 µM) of the same compound?
A: 0.852

Q: And the relative viability (NCI-H1651; first compound 0.1265 µM)?
A: 0.929

Q: What about the relative viability (NCI-H1651; first compound 0.4 µM) of the same compound?
A: 0.822

Q: What about the relative viability (NCI-H1651; first compound 1.265 µM) of the same compound?
A: 0.742

Q: And the relative viability (NCI-H1734; first compound 0.04 µM)?
A: 0.752

Q: And the relative viability (NCI-H1734; first compound 0.1265 µM)?
A: 0.705

Q: And the relative viability (NCI-H1734; first compound 0.4 µM)?
A: 0.601

Q: And the relative viability (NCI-H1734; first compound 1.265 µM)?
A: 0.543

Q: And the relative viability (NCI-H1755; first compound 0.04 µM)?
A: 0.883

Q: What about the relative viability (NCI-H1755; first compound 0.1265 µM) of the same compound?
A: 0.924

Q: What about the relative viability (NCI-H1755; first compound 0.4 µM) of the same compound?
A: 0.897

Q: What about the relative viability (NCI-H1755; first compound 1.265 µM) of the same compound?
A: 0.839

Q: And the relative viability (NCI-H1944; first compound 0.04 µM)?
A: 1.03

Q: And the relative viability (NCI-H1944; first compound 0.1265 µM)?
A: 1.14

Q: What about the relative viability (NCI-H1944; first compound 0.4 µM) of the same compound?
A: 1.08

Q: What about the relative viability (NCI-H1944; first compound 1.265 µM) of the same compound?
A: 1.01

Q: What about the relative viability (NCI-H2087; first compound 0.04 µM) of the same compound?
A: 0.853

Q: And the relative viability (NCI-H2087; first compound 0.1265 µM)?
A: 0.75

Q: And the relative viability (NCI-H2087; first compound 0.4 µM)?
A: 0.833

Q: And the relative viability (NCI-H2087; first compound 1.265 µM)?
A: 0.723

Q: What about the relative viability (NCI-H2170; first compound 0.04 µM) of the same compound?
A: 1.12

Q: What about the relative viability (NCI-H2170; first compound 0.1265 µM) of the same compound?
A: 1.24

Q: What about the relative viability (NCI-H2170; first compound 0.4 µM) of the same compound?
A: 1.18

Q: And the relative viability (NCI-H2170; first compound 1.265 µM)?
A: 0.843

Q: What about the relative viability (NCI-H2228; first compound 0.04 µM) of the same compound?
A: 0.62

Q: And the relative viability (NCI-H2228; first compound 0.1265 µM)?
A: 0.556

Q: What about the relative viability (NCI-H2228; first compound 0.4 µM) of the same compound?
A: 0.469

Q: And the relative viability (NCI-H2228; first compound 1.265 µM)?
A: 0.292

Q: What about the relative viability (NCI-H2405; first compound 0.04 µM) of the same compound?
A: 0.862

Q: And the relative viability (NCI-H2405; first compound 0.1265 µM)?
A: 0.94

Q: What about the relative viability (NCI-H2405; first compound 0.4 µM) of the same compound?
A: 0.841

Q: And the relative viability (NCI-H2405; first compound 1.265 µM)?
A: 0.715

Q: And the relative viability (NCI-H3122; first compound 0.04 µM)?
A: 0.261

Q: What about the relative viability (NCI-H3122; first compound 0.1265 µM) of the same compound?
A: 0.245

Q: What about the relative viability (NCI-H3122; first compound 0.4 µM) of the same compound?
A: 0.272

Q: What about the relative viability (NCI-H3122; first compound 1.265 µM) of the same compound?
A: 0.319

Q: And the relative viability (NCI-H460; first compound 0.04 µM)?
A: 0.872

Q: What about the relative viability (NCI-H460; first compound 0.1265 µM) of the same compound?
A: 1.06

Q: And the relative viability (NCI-H460; first compound 0.4 µM)?
A: 0.83

Q: And the relative viability (NCI-H460; first compound 1.265 µM)?
A: 0.864

Q: And the relative viability (PC-3 [JPC-3]; first compound 0.04 µM)?
A: 0.963

Q: What about the relative viability (PC-3 [JPC-3]; first compound 0.1265 µM) of the same compound?
A: 1.03

Q: What about the relative viability (PC-3 [JPC-3]; first compound 0.4 µM) of the same compound?
A: 0.968

Q: And the relative viability (PC-3 [JPC-3]; first compound 1.265 µM)?
A: 0.832

Q: And the relative viability (RERF-LC-KJ; first compound 0.04 µM)?
A: 0.795

Q: What about the relative viability (RERF-LC-KJ; first compound 0.1265 µM) of the same compound?
A: 0.851

Q: What about the relative viability (RERF-LC-KJ; first compound 0.4 µM) of the same compound?
A: 0.823

Q: And the relative viability (RERF-LC-KJ; first compound 1.265 µM)?
A: 0.766

Q: And the relative viability (UMC-11; first compound 0.04 µM)?
A: 0.587

Q: And the relative viability (UMC-11; first compound 0.1265 µM)?
A: 0.629

Q: What about the relative viability (UMC-11; first compound 0.4 µM) of the same compound?
A: 0.646

Q: What about the relative viability (UMC-11; first compound 1.265 µM) of the same compound?
A: 0.612
